Source: ChEMBL document CHEMBL3885881, “DrugMatrix”

Species on record: Rattus norvegicus
Experiment: DrugMatrix - Regimen: Daily Repeat
Assay type: toxicity, organism-based, Sprague-Dawley
Parameters: regimen Daily Repeat, gender Male, age 6-8 weeks
Conditions: in vivo, po, route oral GAVAGE; for ALANINE AMINOTRANSFERASE / ALKALINE PHOSPHATASE / ASPARTATE AMINOTRANSFERASE / BLOOD UREA NITROGEN / CARBON DIOXIDE / CHLORIDE / CHOLESTEROL / CREATINE PHOSPHOKINASE / CREATININE / GLUCOSE / LACTATE DEHYDROGENASE / LIPASE / PHOSPHORUS / POTASSIUM / SODIUM / TOTAL BILIRUBIN / URIC ACID / ALBUMIN / TOTAL PROTEIN: tissue Plasma
[1] = 0 mg/kg, 120 h, tissue Blood, dose level Control, time 5 day, vehicle 100 % WATER
[2] = 0 mg/kg, 120 h, dose level Control, time 5 day, vehicle 100 % SALINE
[3] = 0 mg/kg, 120 h, dose level Control, time 5 day, vehicle 100 % WATER
[4] = 300 mg/kg, 72 h, tissue Blood, dose level M2, time 3 day, vehicle 100 % SALINE
[5] = 300 mg/kg, 72 h, dose level M2, time 3 day, vehicle 100 % SALINE
[6] = 300 mg/kg, 120 h, tissue Blood, dose level M2, time 5 day, vehicle 100 % SALINE

SMILES: CCCc1nn(C)c2c(=O)[nH]c(-c3cc(S(=O)(=O)N4CCN(C)CC4)ccc3OCC)nc12
- EOSINOPHIL [1]: 0%
- ERYTHROCYTE COUNT [1]: 5.49 x10E6/uL
- HEMATOCRIT [1]: 34.63%
- HEMOGLOBIN [1]: 13.72 G/DL
- LEUKOCYTE COUNT [1]: 11.32 x10E3/uL
- LYMPHOCYTE [1]: 92.67%
- MEAN CORPUSCULAR HEMOGLOBIN [1]: 24.97 pg
- MEAN CORPUSCULAR HEMOGLOBIN CONCENTRATION [1]: 39.57 G/DL
- MEAN CORPUSCULAR VOLUME [1]: 63.05 fL
- MONOCYTE [1]: 0.17%
- NEUTROPHIL [1]: 7.17%
- NUCLEATED RED BLOOD CELLS [1]: 0.17 /100WBC
- PLATELET COUNT [1]: 802 x10E3/uL
- ALANINE AMINOTRANSFERASE [2]: 49.33 u/L
- ALKALINE PHOSPHATASE [2]: 300.33 u/L
- ASPARTATE AMINOTRANSFERASE [2]: 83.5 u/L
- BLOOD UREA NITROGEN [2]: 16 mg/dL
- CARBON DIOXIDE [2]: 29.67 mmol/L
- CHLORIDE [2]: 100.5 MEQ/L
- CHOLESTEROL [2]: 74.33 mg/dL
- CREATINE PHOSPHOKINASE [2]: 489.67 u/L
- CREATININE [2]: 0.35 mg/dL
- GLUCOSE [2]: 151 mg/dL
- LACTATE DEHYDROGENASE [2]: 133.67 u/L
- LIPASE [2]: 11.17 u/L
- PHOSPHORUS [2]: 10.88 mg/dL
- POTASSIUM [2]: 5.5 MEQ/L
- SODIUM [2]: 145.7 MEQ/L
- TOTAL BILIRUBIN [2]: 0.2 mg/dL
- URIC ACID [2]: 0.68 mg/dL
- ALANINE AMINOTRANSFERASE [3]: 50.5 u/L
- ALBUMIN [3]: 4.07 G/DL
- ALKALINE PHOSPHATASE [3]: 336.83 u/L
- ASPARTATE AMINOTRANSFERASE [3]: 81 u/L
- BLOOD UREA NITROGEN [3]: 14.17 mg/dL
- CARBON DIOXIDE [3]: 32 mmol/L
- CHLORIDE [3]: 98.33 MEQ/L
- CHOLESTEROL [3]: 69.17 mg/dL
- CREATINE PHOSPHOKINASE [3]: 253.33 u/L
- CREATININE [3]: 0.13 mg/dL
- GLUCOSE [3]: 153.67 mg/dL
- LACTATE DEHYDROGENASE [3]: 157 u/L
- LIPASE [3]: 9 u/L
- PHOSPHORUS [3]: 10.78 mg/dL
- POTASSIUM [3]: 6.11 MEQ/L
- SODIUM [3]: 144.57 MEQ/L
- TOTAL BILIRUBIN [3]: 0.15 mg/dL
- TOTAL PROTEIN [3]: 6.05 G/DL
- URIC ACID [3]: 0.73 mg/dL
- ABSOLUTE BASOPHIL [4]: 0 CELLS/uL
- ABSOLUTE EOSINOPHIL [4]: 110.67 CELLS/uL
- ABSOLUTE LYMPHOCYTE [4]: 12663.33 CELLS/uL
- ABSOLUTE MONOCYTE [4]: 138 CELLS/uL
- ABSOLUTE SEGMENTED NEUTROPHIL [4]: 821.33 CELLS/uL
- BASOPHIL [4]: 0%
- EOSINOPHIL [4]: 0.67%
- ERYTHROCYTE COUNT [4]: 5.21 x10E6/uL
- HEMATOCRIT [4]: 34.03%
- HEMOGLOBIN [4]: 13.07 G/DL
- LEUKOCYTE COUNT [4]: 13.73 x10E3/uL
- LYMPHOCYTE [4]: 92.67%
- MEAN CORPUSCULAR HEMOGLOBIN [4]: 25.03 pg
- MEAN CORPUSCULAR HEMOGLOBIN CONCENTRATION [4]: 38.43 G/DL
- MEAN CORPUSCULAR VOLUME [4]: 65.3 fL
- MONOCYTE [4]: 0.67%
- NEUTROPHIL [4]: 6%
- NUCLEATED RED BLOOD CELLS [4]: 0.33 /100WBC
- PLATELET COUNT [4]: 1148.67 x10E3/uL
- ALANINE AMINOTRANSFERASE [5]: 45.67 u/L
- ALBUMIN [5]: 3.8 G/DL
- ALKALINE PHOSPHATASE [5]: 335 u/L
- ASPARTATE AMINOTRANSFERASE [5]: 71.67 u/L
- BLOOD UREA NITROGEN [5]: 13.33 mg/dL
- CARBON DIOXIDE [5]: 27.67 mmol/L
- CHLORIDE [5]: 100 MEQ/L
- CHOLESTEROL [5]: 70.67 mg/dL
- CREATINE PHOSPHOKINASE [5]: 284 u/L
- CREATININE [5]: 0.2 mg/dL
- GLUCOSE [5]: 154 mg/dL
- LACTATE DEHYDROGENASE [5]: 142.33 u/L
- LIPASE [5]: 12.33 u/L
- PHOSPHORUS [5]: 11.37 mg/dL
- POTASSIUM [5]: 5.84 MEQ/L
- SODIUM [5]: 144.75 MEQ/L
- TOTAL BILIRUBIN [5]: 0.13 mg/dL
- TOTAL PROTEIN [5]: 5.13 G/DL
- URIC ACID [5]: 0.97 mg/dL
- ABSOLUTE BASOPHIL [6]: 0 CELLS/uL
- ABSOLUTE EOSINOPHIL [6]: 0 CELLS/uL
- ABSOLUTE LYMPHOCYTE [6]: 10278 CELLS/uL
- ABSOLUTE MONOCYTE [6]: 0 CELLS/uL
- ABSOLUTE SEGMENTED NEUTROPHIL [6]: 955.33 CELLS/uL
